The values that follow are results of earlier work, collected in US20240199566A1, “CATALYTIC SYNTHESIS OF DELTA-VALEROLACTONE (DVL) FROM FURFURAL-DERIVED 2-HYDROXYTETRAHYDROPYRAN (HTHP)” (Wisconsin Alumni Research Foundation, priority 2022, published 2024).

For this series the following is noted: stated as a property, no test described.

In the case of `C1=COCCC1` [DHP, 3,4-dihydropyran], the solubility in water is given as less than 1 wt %.
